Here are results for 2 molecules from publication PMC5493921 (Royal Society Open Science, 2017).

The target in assay [1] is T1, ZfBGD2 (Zygaena filipendulae, UniProt A0A1W1EGN8).
T1 construct: expressed with and without (*) predicted native N-terminal signal peptide; retained in cells
It is filed as cell-based.

The target of assay [2] is T2, ZfGBA1 (Zygaena filipendulae, UniProt A0A1W1EGM7).
T2 construct: expressed with and without (*) predicted native N-terminal signal peptide; retained in cells
It is filed as cell-based.

T1 sequence (A0A1W1EGN8 19-524 limits assumed): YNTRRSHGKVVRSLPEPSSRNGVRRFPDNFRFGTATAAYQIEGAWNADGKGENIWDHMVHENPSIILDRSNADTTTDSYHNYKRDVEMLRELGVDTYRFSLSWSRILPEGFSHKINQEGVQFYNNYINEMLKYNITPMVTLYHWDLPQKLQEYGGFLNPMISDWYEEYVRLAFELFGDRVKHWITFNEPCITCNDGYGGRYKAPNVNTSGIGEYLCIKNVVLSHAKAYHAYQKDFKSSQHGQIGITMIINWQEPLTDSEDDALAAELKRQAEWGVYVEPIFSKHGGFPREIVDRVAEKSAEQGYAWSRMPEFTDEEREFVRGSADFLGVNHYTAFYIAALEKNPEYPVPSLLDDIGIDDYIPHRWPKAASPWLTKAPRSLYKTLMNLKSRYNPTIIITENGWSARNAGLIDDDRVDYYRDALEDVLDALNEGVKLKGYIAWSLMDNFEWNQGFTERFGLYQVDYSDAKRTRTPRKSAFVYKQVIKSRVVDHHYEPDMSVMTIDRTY
T2 sequence (A0A1W1EGM7 entry or part of it): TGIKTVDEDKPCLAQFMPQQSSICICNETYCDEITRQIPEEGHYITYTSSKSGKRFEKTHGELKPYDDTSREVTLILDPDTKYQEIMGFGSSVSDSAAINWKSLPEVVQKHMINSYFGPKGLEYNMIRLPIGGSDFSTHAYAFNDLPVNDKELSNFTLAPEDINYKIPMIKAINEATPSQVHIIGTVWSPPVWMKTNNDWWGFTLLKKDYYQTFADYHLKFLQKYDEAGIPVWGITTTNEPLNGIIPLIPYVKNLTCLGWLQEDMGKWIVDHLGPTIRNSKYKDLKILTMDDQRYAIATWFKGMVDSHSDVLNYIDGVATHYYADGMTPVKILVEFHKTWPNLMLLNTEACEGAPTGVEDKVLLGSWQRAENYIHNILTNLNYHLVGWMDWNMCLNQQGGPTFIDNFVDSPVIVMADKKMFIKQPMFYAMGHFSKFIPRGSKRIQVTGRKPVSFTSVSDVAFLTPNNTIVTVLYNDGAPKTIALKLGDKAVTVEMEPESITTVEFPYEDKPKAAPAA

Take `CC(C)(C#N)O[C@@H]1O[C@H](CO)[C@@H](O)[C@H](O)[C@H]1O` [lin, linamarin]: the “HCN release from re-suspended Sf9 cells, Feigl-Anger paper and colorimetric” value was “ZfBGD2 and ZfGBA1 also hydrolysed linamarin and lotaustralin” in assay [1]; “ZfBGD2 and ZfGBA1 also hydrolysed linamarin and lotaustralin” in assay [2].

Turning to `CC[C@](C)(C#N)O[C@@H]1O[C@H](CO)[C@@H](O)[C@H](O)[C@H]1O` [lot, lotaustralin], the “HCN release from re-suspended Sf9 cells, Feigl-Anger paper and colorimetric” value is “ZfBGD2 and ZfGBA1 also hydrolysed linamarin and lotaustralin” in assay [1]; “ZfBGD2 and ZfGBA1 also hydrolysed linamarin and lotaustralin” in assay [2].
